Assay [1] deals with J774.1 strain, an established cell line of mouse macrophage. Briefly: Inhibitory effects on the accumulation of cholesterol esters in macrophage (Test 2). The class given is cell-based. To be noted: J774.1 mouse macrophage, 12 hours incubation with cholesterol liposomes. The protocol: Inhibitory effects on the accumulation of cholesterol esters in macrophage were tested using J774.1 strain, an established cell line of mouse macrophage.
Metabolism of LDL in endothelial cells or smooth muscle cells causes downregulation of the LDL receptor by excess free cholesterol in the cells, but in a macrophage, uptake of modified lDL takes place via a scavenger receptor. As no regulation is applied to this pathway, cholesterol esters progressively accumulate without any limitation.
It was therefore studied whether or not corydaline would inhibit intracellular accumulation of cholesterol esters by having liposomes, which were formed of […] cholesterol and phosphatidylcholine, uptaken in macrophage cells and then causing them to act on acyl-CoA:cholesterol acyltransferase which existed on rough-surfaced endoplasmic reticula.
The macrophage cells were incubated for 2 days under 5% CO2 on an RPMI 1640 medium (product of NISSUI PHARMACEUTICAL CO., LTD.) which had been added with 10% fetal bovine serum, penicilin (50 U/mℓ) and streptomycin (50 µg/mℓ). Trypsinization was then conducted, and cells attached to the bottom of each well were peeled off and formulated into a cell suspension. The cells were washed with a fresh supply of the above-described culture medium, and the cell solution was then seeded at 2 x 10^6 cells/mℓ on a 24-well multiple well plate ("25820-24", product of CORNING INC.). After incubation at 37°C under 5% CO2 for 37 hours, the culture medium was replaced with a fresh supply of the above-described culture medium and, after a 0.3 M glucose solution (40 µℓ) with cholesterol [80 µg; containing 0.4 µCi of (^3H)-cholesterol] and phosphatidylcholine (160 µg) contained therein and a methanol solution (10 µℓ)with a test sample dissolved therein were added, incubation was conducted for 12 hours. These procedures were carried out aseptically.
After completion of the incubation, cells attached to each bottom were washed 5 times with a serum-free RPMI 1640 medium by a graduated pipet, and isopropanol (1 mℓ) was added to extract intracellular cholesterol and formed cholesterol esters. The extract was coated in its entirety on a silica gel thin layer chromatography ("Art 5553", product of MERCK & Co., INC.) and subsequent to development with a 80:20:2 mixture of hexane, ethyl ether and formic acid, autoradiography was performed.
A section, which contained ^3H-labelled cholesterol esters and cholesterol, was cut off. Its radioactivity was measured by a liquid scintillation counter and compared with a control, whereby a cholesterol ester accumulation inhibition rate was determined.

The subject of assay [2] is rat-derived ACAT. Briefly: Inhibitory effects on rat-derived ACAT (Test 1). Conditions: crude enzyme from microsome protein fractions of rat liver, (14C)-oleoyl-CoA substrate, 37°C. Format: biochemical. The protocol:
To test effects on ACAT, a reaction was conducted in vitro to form (^14C)-cholesteryl oleate from endogeneous cholesterol in the presence of (^14C)-oleoyl-CoA as a substrate by using a crude enzyme prepared from microzome protein fractions of a rat liver.
The reaction mixture had the following composition: 20 µℓ of microsome protein (1.83 mg/mℓ), 20 µℓ of (^14C)-oleoyl-CoA (5 µCi/mℓ, BSA: 96 nmol/mℓ), 106 µℓ of 100 mM phosphate buffer (containing 5 mM of dithiothreitol, pH 7.4) and a sample dissolved in 4 µℓ of methanol or dimethyl sulfoxide; 150 µℓ in total.
The reaction was conducted at 37°C. After an elapse of a predetermined reaction time (18 minutes in general), a 2:1 mixture of chloroform and methanol (5.65 mℓ) was added to terminate the reaction. A 0.04 N aquous solution of hydrochloric acid (0.98 mℓ) and as a carrier, cholesteryl oleate were added, followed by extraction for 20 minutes on a shaking apparatus. The mixture was then allowed to stand overnight in a cold dark place. On the following day, the separated lower chloroform layer was extracted in its entirety and was dried under a nitrogen gas stream. The remaining upper layer was added with the lower layer (5.65 mℓ) of the Folch's partition solution, and was extracted again. After the mixture was allowed to stand overnight in a dark place, the lower layer was drawn in its entirety. This lower layer was combined with the lower chloroform layer fraction, which had already been dried to solid, and the mixture was then dried to solid.
The solid was then dissolved in chlorofrom (200 µℓ), and the solution was coated in its entirety on a G60 plate (aluminum sheet) for silica gel thin layer chromatography. After the solid was developedover 10 cm with a 10:190 mixture of diethyl ether and petroleum ether, autoradiography was conducted and the formation of (^14C)-colesteryl oleate was confirmed. This section was then cut off. The radioactivity of each sample was measured by subjecting it to liquid scintillation counting for 5 minutes in toluene or was measured for 30 minutes by a "Betascope" (manufactured by BETA-GEN INC. The results so obtained are shown in Table 1. Table 1

This passage reports IC50 results from patent publication EP0974573A1, “PHENYLPROPENONE COMPOUNDS AND MEDICINES CONTAINING THE SAME” (Kabushiki Kaisha Yakult Honsha, priority 1997, dated 1998).

Consider `COc1cc(/C=C/C(=O)N2CCN(c3ccc(C)c(C)c3)CC2)cc(OC)c1OCc1ccccc1` [Compound 11, N-[4-(3,4-dimethylphenyl)-1,4-diazacyclohexyl]-(2E)-(3,5-dimethoxy-4-benzyloxyphenyl)-2-propenamide], for which the IC50 in assay [1] amounted to 189 nM; in assay [2] it was 60 nM.

Turning to `CCCCCCOc1c(OC)cc(/C=C/C(=O)N2CCN(c3ccc(C)cc3C)CC2)cc1OC` [Compound 13], the IC50 in assay [1] stood at 200 nM; in assay [2], 79 nM. On to `CCCCCCCCCCCCOc1c(OC)cc(/C=C/C(=O)NN2CCN(c3ccc(C)cc3C)CC2)cc1OC` [Compound 19, N-[4-(2,4-dimethylphenyl)-1,4-diazacyclohexyl]-(2E)-3-(3,5-dimethoxy-4-dodecyloxyphenyl) -2-propenamide], for which the IC50 in assay [1] (Mus musculus, J774.1, 12 h) is 250 nM; in assay [2] it was 70 nM.

Turning to `COc1cc(/C=C/C(=O)NCc2ccccc2)cc(OC)c1OCc1ccccc1` [Compound 58, N-benzyl-(2E)-3-(3,5-dimethoxy-4-benzyloxyphenyl)-2-propenamide], it took 930 nM to reach half-maximal inhibition in assay [1] (Mus musculus, J774.1, 12 h) (IC50). With `COc1cc(/C=C/C(=O)NCCc2ccccc2)cc(OC)c1OCc1ccccc1` [Compound 59, N-(2-phenyl)ethyl-(2E)-3-(3,5-dimethoxy-4-benzyloxyphenyl)-2-propenamide], half-maximal inhibition in assay [1] (Mus musculus, J774.1, 12 h) (IC50) was put at 620 nM. With `COc1cc(/C=C/C(=O)NCCCc2ccccc2)cc(OC)c1OCc1ccccc1` [Compound 60, N-(3-phenyl)propyl-(2E)-3-(3,5-dimethoxy-4-benzyloxyphenyl)-2-propenamide], in assay [1] (Mus musculus, J774.1, 12 h), the IC50 is 870 nM. Still for that read-out and setting: as for `COc1cc(/C=C/C(=O)NCCCCc2ccccc2)cc(OC)c1OCc1ccccc1` [Compound 61, N-(4-phenyl)butyl-(2E)-3-(3,5-dimethoxy-4-benzyloxyphenyl)-2-propenamide], the figure is 840 nM. As for `COc1cc(/C=C/C(=O)NC2CCN(Cc3ccccc3)CC2)cc(OC)c1OCc1ccccc1` [Compound 62, N-[4-(1-benzyl)piperidino]-(2E)-3-(3,5-dimethoxy-4-benzyloxyphenyl)-2-propenamide], the IC50 in assay [1] worked out at 840 nM. As for `COc1cc(/C=C/C(=O)Nc2ccc(C)cc2C)cc(OC)c1OCc1ccccc1` [Compound 63, N-(2,4-dimethylphenyl)-(2E)-3-(3,5-dimethoxy-4-benzyloxyphenyl)-2-propenamide], the IC50 was determined as 520 nM in assay [1] (Mus musculus, J774.1, 12 h) and 52 nM in assay [2]. On the same counts, the results for `COc1cc(/C=C/C(=O)Nc2cccc(C)c2C)cc(OC)c1OCc1ccccc1` [Compound 64, N-(2,3-dimethylphenyl)-(2E)-3-(3,5-dimethoxy-4-benzyloxyphenyl)-2-propenamide] are 900 nM and 35 nM.

In the case of `COc1cc(/C=C/C(=O)Nc2ccc(C)c(C)c2)cc(OC)c1OCc1ccccc1` [Compound 65, N-(3,4-dimethylphenyl)-(2E)-3-(3,5-dimethoxy-4-benzyloxyphenyl)-2-propenamide], the IC50 came out at 46 nM in assay [1] (Mus musculus, J774.1, 12 h) and 47 nM in assay [2]. `COc1cc(/C=C/C(=O)Nc2c(C)cccc2C)cc(OC)c1OCc1ccccc1` [Compound 66, N-(2,6-dimethylphenyl)-(2E)-3-(3,5-dimethoxy-4-benzyloxyphenyl)-2-propenamide]: the IC50 stood at 900 nM in assay [1] (Mus musculus, J774.1, 12 h) and 47 nM in assay [2]. In the case of `COc1cc(/C=C/C(=O)Nc2c(C)cc(C)cc2C)cc(OC)c1OCc1ccccc1` [Compound 67, N-(2,4,6-trimethylphenyl)-(2E)-3-(3,5-dimethoxy-4-benzyloxyphenyl)-2-propenamide], half-maximal inhibition in assay [1] (Mus musculus, J774.1, 12 h) (IC50) required 870 nM.

For `COc1cc(/C=C/C(=O)Nc2c(C(C)C)cccc2C(C)C)cc(OC)c1OCc1ccccc1` [Compound 68, N-(2,6-diisopropylphenyl)-(2E)-3-(3,5-dimethoxy-4-benzyloxyphenyl)-2-propenamide], the IC50 in assay [1] (Mus musculus, J774.1, 12 h) was 790 nM; in assay [2] it was 72 nM. With `COc1cc(/C=C/C(=O)Nc2ccc(C(C)(C)C)cc2)cc(OC)c1OCc1ccccc1` [Compound 69, N-(4-tert-butylphenyl)-(2E)-3-(3,5-dimethoxy-4-benzyloxyphenyl)-2-propenamide], the midpoint of inhibition in assay [1] (Mus musculus, J774.1, 12 h), the IC50, lay at 28 nM. On the same count and under the same terms, to `COc1cc(/C=C/C(=O)Nc2ccccc2C(C)(C)C)cc(OC)c1OCc1ccccc1` [Compound 70, N-(2-tert-butylphenyl)-(2E)-3-(3,5-dimethoxy-4-benzyloxyphenyl)-2-propenamide] belongs 840 nM. Regarding `COc1cc(/C=C/C(=O)Nc2ccc(C)cc2)cc(OC)c1OCc1ccccc1` [Compound 71, N-(4-methylphenyl)-(2E)-3-(3,5-dimethoxy-4-benzyloxyphenyl)-2-propenamide], the IC50 in assay [1] (Mus musculus, J774.1, 12 h) worked out at 120 nM; in assay [2], 37 nM. For the compound `COc1ccc(NC(=O)/C=C/c2cc(OC)c(OCc3ccccc3)c(OC)c2)cc1` [Compound 72, N-(4-methoxyphenyl)-(2E)-3-(3,5-dimethoxy-4-benzyloxyphenyl)-2-propenamide], the IC50 is 170 nM in assay [1] (Mus musculus, J774.1, 12 h) and 35 nM in assay [2]. The compound `COc1cc(/C=C/C(=O)Nc2ccc(OC(C)C)cc2)cc(OC)c1OCc1ccccc1` [Compound 73, N-(4-isopropyloxyphenyl)-(2E)-3-(3,5-dimethoxy-4-benzyloxyphenyl)-2-propenamide] displayed an IC50 in assay [1] (Mus musculus, J774.1, 12 h) of 31 nM. As to `COc1cc(/C=C/C(=O)Nc2ccc(N(C)C)cc2)cc(OC)c1OCc1ccccc1` [Compound 74, N-[4-(N',N^'-dimethylamino)phenyl]-(2E)-3-(3,5-dimethoxy-4-benzyloxyphenyl)-2-propenamide], the IC50 is 990 nM in assay [1] and 90 nM in assay [2]. `COc1cc(/C=C/C(=O)Nc2ccccc2)cc(OC)c1OCc1ccccc1` [Compound 76, N-phenyl-(2E)-3-(3,5-dimethoxy-4-benzyloxyphenyl)-2-propenamide]: the IC50 in assay [1] (Mus musculus, J774.1, 12 h) was found to be 490 nM.

In assay [1] (Mus musculus, J774.1, 12 h), `COc1cc(/C=C/C(=O)Nc2ccc(Br)cc2)cc(OC)c1OCc1ccccc1` [Compound 79, N-(4-bromophenyl)-(2E)-3-(3,5-dimethoxy-4-benzyloxyphenyl)-2-propenamide] gave an IC50 of 78 nM.

`COc1cc(/C=C/C(=O)Nc2ccc(I)cc2)cc(OC)c1OCc1ccccc1` [Compound 80, N-(4-iodophenyl)-(2E)-3-(3,5-dimethoxy-4-benzyloxyphenyl)-2-propenamide] showed an IC50 in assay [1] (Mus musculus, J774.1, 12 h) of 43 nM. The same measure, in the same setting: as for `COc1cc(/C=C/C(=O)Nc2ccc(Cl)c(Cl)c2)cc(OC)c1OCc1ccccc1` [Compound 81, N-(3,4-dichlorophenyl)-(2E)-3-(3,5-dimethoxy-4-benzyloxyphenyl)-2-propenamide], the figure is 150 nM; as for `COc1cc(/C=C/C(=O)Nc2ccc(Oc3ccccc3)cc2)cc(OC)c1OCc1ccccc1` [Compound 85, N-(4-phenoxyphenyl)-(2E)-3-(3,5-dimethoxy-4-benzyloxyphenyl)-2-propenamide], 26 nM. Compound “N-[4-(2,4-dimethylphenyl)-1,4-diazacyclohexyl]-(2E)-3-[3,5-dimethoxy-4-(3-phenyl)propyloxy]-2-propenamide [Compound 23]” yielded an IC50 in assay [1] of 32 nM.
